How the values were obtained:
[1] = system: patient suffering from transient or short term insomnia; assay: Treatment of a patient with transient or short term insomnia; type: in vivo, human
Description: A patient suffers from transient or short term insomnia. The patient is otherwise healthy with normal affect with no depression, anxiety or substance overuse. The patient is prescribed desmethyldoxepin in a daily dosage of 1 milligram, prior to bedtime.
A patient suffers from transient or short term insomnia. The patient is otherwise healthy with normal affect with no depression, anxiety or substance overuse. The patient is prescribed desmethyldoxepin in a daily dosage of 2 milligrams, prior to bedtime.
A patient suffers from transient or short term insomnia. The patient also suffers from depression. The patient is prescribed desmethyldoxepin in a daily dosage of 2 milligrams, prior to bedtime.
A patient suffers from transient or short term insomnia. The patient is otherwise healthy with normal affect with no depression, anxiety or substance overuse. The patient is prescribed desmethyldoxepin in a daily dosage of 5 milligrams, prior to bedtime.
A patient suffers from transient or short term insomnia. The patient also suffers from depression. The patient is prescribed desmethyldoxepin in a daily dosage of 5 milligrams, prior to bedtime.
A patient suffers from transient or short term insomnia. The patient is otherwise healthy with normal affect with no depression, anxiety or substance overuse. The patient is prescribed desmethyldoxepin in a daily dosage of 10 milligrams, prior to bedtime.
A patient suffers from transient or short term insomnia. The patient also suffers from depression. The patient is prescribed desmethyldoxepin in a daily dosage of 10 milligrams, prior to bedtime.
A patient suffers from transient or short term insomnia. The patient is otherwise healthy with normal affect with no depression, anxiety or substance overuse. The patient is prescribed desmethyldoxepin in a daily dosage of 20 milligrams prior to bedtime.
A patient suffers from transient or short term insomnia. The patient also suffers from depression. The patient is prescribed desmethyldoxepin in a daily dosage of […] prior to bedtime.
A patient suffers from transient or short term insomnia. The patient is otherwise healthy with normal affect with no depression, anxiety or substance overuse. The patient is prescribed desmethyldoxepin in a daily dosage of 150 milligrams prior to bedtime.
A patient suffers from transient or short term insomnia. The patient also suffers from depression. The patient is prescribed desmethyldoxepin in a daily dosage of 150 milligrams prior to bedtime.

[2] = system: patient suffering from chronic insomnia; assay: Treatment of a patient with chronic insomnia; type: in vivo, human
Description: A patient suffers from chronic insomnia. The patient is otherwise healthy with normal affect with no depression, anxiety or substance overuse. The patient is prescribed desmethyldoxepin in a daily dosage of 2 milligrams prior to bedtime.
A patient suffers from chronic insomnia. The patient also suffers from depression. The patient is prescribed desmethyldoxepin in a daily dosage of 1 milligram prior to bedtime.
A patient suffers from chronic insomnia. The patient also suffers from depression. The patient is prescribed desmethyldoxepin in a daily dosage of 2 milligrams prior to bedtime.
A patient suffers from chronic insomnia. The patient is otherwise healthy with normal affect with no depression, anxiety or substance overuse. The patient is prescribed desmethyldoxepin in a daily dosage of 5 milligrams prior to bedtime.
A patient suffers from chronic insomnia. The patient also suffers from depression. The patient is prescribed desmethyldoxepin in a daily dosage of 5 milligrams prior to bedtime.
A patient suffers from chronic insomnia. The patient is otherwise healthy with normal affect with no depression, anxiety or substance overuse. The patient is prescribed desmethyldoxepin in a daily dosage of 10 milligrams prior to bedtime.
A patient suffers from chronic insomnia. The patient also suffers from depression. The patient is prescribed desmethyldoxepin in a daily dosage of 10 milligrams prior to bedtime.
A patient suffers from chronic insomnia. The patient is otherwise healthy with normal affect with no depression, anxiety or substance overuse. The patient is prescribed desmethyldoxepin in a daily dosage of 20 milligrams prior to bedtime.
A patient suffers from chronic insomnia. The patient also suffers from depression. The patient is prescribed desmethyldoxepin in a daily dosage of 20 milligrams prior to bedtime.
A patient suffers from chronic insomnia. The patient is otherwise healthy with normal affect with no depression, anxiety or substance overuse. The patient is prescribed desmethyldoxepin in a daily dosage of 150 milligrams prior to bedtime.
A patient suffers from chronic insomnia. The patient also suffers from depression. The patient is prescribed desmethyldoxepin in a daily dosage of 150 milligrams prior to bedtime.

[3] = daily dosage of 2 milligrams prior to bedtime, patient also suffers from depression
[4] = daily dosage of 2 milligrams prior to bedtime, patient otherwise healthy, no depression, anxiety or substance overuse
[5] = daily dosage of 5 milligrams prior to bedtime, patient also suffers from depression
[6] = daily dosage of 5 milligrams prior to bedtime, patient otherwise healthy, no depression, anxiety or substance overuse
[7] = daily dosage of 10 milligrams prior to bedtime, patient also suffers from depression
[8] = daily dosage of 10 milligrams prior to bedtime, patient otherwise healthy, no depression, anxiety or substance overuse
[9] = daily dosage of 20 milligrams prior to bedtime, patient otherwise healthy, no depression, anxiety or substance overuse
[10] = daily dosage of 150 milligrams prior to bedtime, patient also suffers from depression
[11] = daily dosage of 150 milligrams prior to bedtime, patient otherwise healthy, no depression, anxiety or substance overuse

Measured: relief of insomnia

CNCC/C=C1/c2ccccc2COc2ccccc21 [desmethyldoxepin, Desmethyldoxepin]
relieves the insomnia: [1]; daily dosage of 1 milligram prior to bedtime, patient otherwise healthy, no depression, anxiety or substance overuse | [1]; [3] | [1]; [4] | [1]; [5] | [1]; [6] | [1]; [7] | [1]; [8] | [1]; [9] | [1]; daily dosage of 20 prior to bedtime, patient also suffers from depression | [1]; [10] | [1]; [11] | [2]; daily dosage of 1 milligram prior to bedtime, patient also suffers from depression | [2]; [3] | [2]; [4] | [2]; [5] | [2]; [6] | [2]; [7] | [2]; [8] | [2]; daily dosage of 20 milligrams prior to bedtime, patient also suffers from depression | [2]; [9] | [2]; [10] | [2]; [11]

Source: patent publication US20130296413A1, “N-DESMETHYL-DOXEPIN AND METHODS OF USING THE SAME TO TREAT SLEEP DISORDERS” (Procom One, Inc., priority 2006, published 2013)
